Type in all cases: in vivo
One assay relates to Setaria faberi (SETFA). Briefly: Biological Example 3 glasshouse assay, post-emergence, various adjuvant systems. The settings on record: 8 g/ha. As for the experimental part:
(§1) Post-emergence foliar spray application, 200 L/ha, usually one or two replicates for the weeds (depending on application rate), and two replicates for soybean.
(§2) Standard warm conditions (tropical), in glasshouse. Specifically, the glasshouse bay conditions are 24° C./18° C. day/night; 16/8 hours light/dark; 65% humidity.
(§3) The herbicidal application takes place at the following growth stages for plants which include inter alia one or more of the following plants (usually the herbicidal application takes place on at least the following plants: DIGSA, ELEIN, SETFA, ZEAMX, GLXMA Nikko, and GLXMA TMG133, and often also either BRADC or BRAPP):
Setaria faberi (SETFA)—growth stage 12 or 13
(§4) Each test compound is applied with one of the following adjuvant systems (all percentages are final concentrations in the aqueous spray mixture):
(§5) Adjuvant system 2: 0.5% v/v Hexamoll™ DINCH**, 1.0% v/v AMS (ammonium sulphate) and 12.5% v/v IPA (isopropyl alcohol).
(§6) Adjuvant system 3: 0.5% v/v tris-(2-ethylhexyl)phosphate (“TEHP”), 1.0% v/v AMS (ammonium sulphate) and 12.5% v/v IPA (isopropyl alcohol).
(§7) Seeds of the weed (including volunteer) plants, typically including inter alia Digitaria sanguinalis (DIGSA), Eleusine indica (ELEIN), Setaria faberi (SETFA), Zea mays (ZEAMX, corn), and sometimes also [either Brachiaria decumbens (BRADC) or Brachiaria platyphylla (BRAPP)], are sown in seed trays (troughs) containing clay loam soil (pH 7.0, 2.2% organic matter, “Trough Mix A”); and soybean seed is sown in pots containing the same soil with 3 soybean seedlings per pot. The plants are sprayed with the test herbicide when they reach the growth stages mentioned above.
(§8) The test herbicidal solutions are prepared by mixing the appropriate aliquots of the test substance(s) and one of the adjuvant systems indicated above *** in deionised water to give the desired treatment concentration.
(§9) The herbicidal application is made as a foliar spray, using a tracksprayer. Following the herbicidal application, the plants are watered twice per day for the duration of the test.
(§10) A visual assessment of the % herbicidal damage is made 7 and 14 Days After herbicide Application (DAA) (or, in a minority of cases, 7 and 15 DAA), and the results are recorded as % visual herbicidal damage where 0%=no damage to plants and 100%=plant totally killed.
(§11) Compounds A2 and A7 were tested using the 0.5% v/v Hexamoll™ DINCH™+1.0% v/v AMS+12.5% v/v IPA adjuvant system. Compounds A11, A12, A14, A20 and A21 were tested using the 0.5% v/v tris-(2-ethylhexyl)phosphate (“TEHP”)+1.0% v/v AMS+12.5% v/v IPA adjuvant system.
(§12) The percentages of herbicidal damage/plant control, at 14 Days After herbicide Application (DAA) (or, in some cases, at 15 DAA), for the Compounds tested and for some of the plants tested, were in the following percentage ranges. For the tested compounds, the phytotoxicity results shown herein are generally the average of 2 or 3 repetitions (for the grassy weeds including corn) or the average of 2 repetitions (for soybean for most of the tested compounds). However, for Compound A2 on soybean there was 1 repetion only.

A further assay relates to Eleusine indica (ELEIN). Described as above. The settings on record: 8 g/ha. The method, then:
as §1, §2, §3
Eleusine indica (ELEIN)—growth stage 12 or 13
as §4, §5, §6, §7, §8, §9, §10, §11, §12

For assay [1], the system named is Brachiaria decumbens (BRADC). Described as above. The note with it: 8 g/ha. The method, then: as §1, §2, §3
Brachiaria decumbens (BRADC)—growth stage (GS) 12 or 13 (or GS 12)—or, if BRADC is not used, then sometimes Brachiaria platyphylla (BRAPP)—growth stage 12 or 13
as §4, §5, §6, §7, §8, §9, §10
Compounds A2 and A7 were tested using the 0.5% v/v Hexamoll™ DINCH™+1.0% v/v AMS+12.5% v/v IPA adjuvant system. Compounds A11, A12, A14, A20 and A21 were tested using the 0.5% v/v tris-(2-ethylhexyl)phosphate (“TEHP”)+1.0% v/v AMS+12.5% v/v IPA adjuvant system. […]

The next assay relates to Avena fatua (AVEFA). Briefly: Test 1 glasshouse assay, post-emergence herbicidal activity. The note with it: 312 h, post-emergence (Example 1B Table 2), after 13 days, read-out: Percentage phytotoxicity AVEFA. The method, boiled down:
(§13)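 Post-emergence: plants sprayed after 8 days' growth in a glasshouse (24/16 °C day/night, 14 h light, 65% humidity) with compound in acetone/water 50:50 containing 0.5% Tween 20. Phytotoxicity was scored visually 13 days later as percent damage (0 = none, 100 = total).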

Another assay relates to Lolium perenne (LOLPE). Described as above. The settings on record: 312 h, post-emergence (Example 1B Table 2), after 13 days, read-out: Percentage phytotoxicity LOLPE. The method, boiled down:
as §13

In assay [2] the test system is Triticum aestivum (TRZAW, winter wheat). The description is as above. The note with it: 312 h, post-emergence (Example 1B Table 2), after 13 days, crop plant, read-out: Percentage phytotoxicity TRZAW. The method, boiled down: as §13
Assay [3] has as its system Glycine max (GLXMA, soybean) cultivar TMG133 (Roundup Ready glyphosate-tolerant). Briefly: Biological Example 3 glasshouse assay, post-emergence, various adjuvant systems. The note with it: crop. The method, then: as §1, §2, §3
Glycine max (GLXMA, soybean) cultivar “TMG133”—which is Roundup Ready™ glyphosate-tolerant soybean cultivar TMG133 (typically available from Monsanto in Brazil)—growth stage: 1st trifoliate.
as §4, §5, §6, §7, §8, §9, §10, §11, §12
Glycine max (GLXMA, soybean) cultivar “TMG133” is Roundup Ready™ glyphosate-tolerant soybean cultivar TMG133, and is typically available from Monsanto in Brazil.

Setting [4] is: 14 DAA, adjuvant 0.5% v/v Hexamoll DINCH + 1.0% v/v AMS + 12.5% v/v IPA.
Setting [5] is: 14 or 15 DAA, adjuvant 0.5% v/v TEHP + 1.0% v/v AMS + 12.5% v/v IPA.

This is an account of results in patent publication US10375956B2, “Herbicidally active 2-(substituted-phenyl)-cyclopentane-1,3-dione compounds and derivatives thereof” (Syngenta Limited, priority 2013, dated 2019).

As for `C#CCC1CC(=O)C(c2c(C)cc(-c3ccc(Cl)cn3)cc2C)C1=O` (centres unmarked) [Compound A2], the “percentage control of (phytotoxicity on) Setaria faberi (SETFA)” value in the assay with Setaria faberi (SETFA) (setting [4]) turned out to be 90%. Further, the “percentage control of (phytotoxicity on) Eleusine indica (ELEIN)” value in the assay on Eleusine indica (ELEIN) (setting [4]) is on record as 85%. Further, the “percentage control of (phytotoxicity on) Brachiaria decumbens (BRADC)” value in assay [1] (setting [4]) is reported as 50%. In the assay with Avena fatua (AVEFA), the pest or weed control at 62.5 g/ha came to 80% and the pest or weed control at 250 g/ha turned out to be 100%. In addition, in the assay on Lolium perenne (LOLPE), the pest or weed control at 62.5 g/ha was 70% and the pest or weed control at 250 g/ha turned out to be 100%. Also, in assay [2], the plant injury at 62.5 g/ha is 70% and the plant injury at 250 g/ha was 90%. In assay [3] (120 g/ha, 14 DAA, adjuvant 0.5% v/v Hexamoll DINCH + 1.0% v/v AMS + 12.5% v/v IPA), the “percentage phytotoxicity on Glycine max cultivar TMG133” value was 20%.
Regarding `C#CCC1CC(=O)C(c2c(Cl)cc(-c3ccc(F)cc3F)cc2OC)C1=O` (centres unmarked) [Compound A12], the “percentage control of Setaria faberi” value with Setaria faberi (SETFA) (setting [5]) amounted to 95%. The “percentage control of Eleusine indica” value in the assay with Eleusine indica (ELEIN) (setting [5]) came to 90%. In addition, the “percentage control of Brachiaria decumbens (BRADC)” value in assay [1] (setting [5]) came out at 99%. Further, in the assay with Avena fatua (AVEFA), the pest or weed control at 62.5 g/ha came out at 60% and the pest or weed control at 250 g/ha was determined as 100%. Besides, in the assay with Lolium perenne (LOLPE), the pest or weed control at 62.5 g/ha came to 70% and the pest or weed control at 250 g/ha was 100%. For the same compound, in assay [2], the plant injury at 62.5 g/ha was found to be 70% and the plant injury at 250 g/ha stood at 80%. Besides, the “percentage phytotoxicity on Glycine max cultivar TMG133” value in assay [3] (240 g/ha, 14 or 15 DAA, adjuvant 0.5% v/v TEHP + 1.0% v/v AMS + 12.5% v/v IPA) is reported as 15%.
